# Assay results reported in patent US20250171437A1 (Agios Pharmaceuticals,Inc., priority 2022, published 2025).
# Target: T1, human PAH with the R408W mutation (A375 R408W cells) (Homo sapiens, UniProt P00439, R408W)
# T1 construct: expressed in transfected cells
# T1 sequence (P00439 1-452 R408W): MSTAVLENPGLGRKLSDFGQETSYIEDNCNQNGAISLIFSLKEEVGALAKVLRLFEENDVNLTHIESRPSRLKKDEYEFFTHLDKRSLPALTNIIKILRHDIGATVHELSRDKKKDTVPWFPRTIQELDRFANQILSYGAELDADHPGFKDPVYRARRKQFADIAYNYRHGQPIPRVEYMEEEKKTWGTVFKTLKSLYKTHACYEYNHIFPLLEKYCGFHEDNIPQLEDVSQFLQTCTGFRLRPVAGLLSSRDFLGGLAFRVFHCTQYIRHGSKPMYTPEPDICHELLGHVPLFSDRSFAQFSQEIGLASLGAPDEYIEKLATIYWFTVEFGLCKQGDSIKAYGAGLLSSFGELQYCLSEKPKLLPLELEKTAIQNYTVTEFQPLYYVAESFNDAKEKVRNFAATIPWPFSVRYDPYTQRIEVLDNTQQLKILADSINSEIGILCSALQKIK
# Assay: Cell Based Phenylalanine Flux Assay
# Settings: A375 R408W cells; 24 hrs with compound, then 20 μM sepiapterin and 800 μM 13C9,15N-Phenylalanine for 4 hours; 13C-Tyrosine by LC-MS; average where tested multiple times
# In short: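 AC50 is derived from LC-MS of 13C-tyrosine in the media after a 4 h pulse of 800 μM 13C9,15N-phenylalanine plus 20 μM sepiapterin. The A375 R408W PAH cells had received duplicate 10-point, 2-fold compound dilutions (0.5% DMSO) for 24 h beforehand.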
row,Structure (SMILES),AC50 [µM]
1,"CC(C)(O)c1nc(Cl)c(C(=O)N2CCc3[nH]cnc3[C@H]2c2nc3c(F)cccc3o2)o1 [Example 274, (S)-(4-chloro-2-(2-hydroxypropan-2-yl)oxazol-5-yl)(4-(4-fluorobenzo[d]oxazol-2-yl)-6,7-dihydro-1H-imidazo[4,5-c]pyridin-5(4H)-yl)methanone]",0.5 to 1
2,"CN1CCN(c2cn3ncc(C(=O)N4CCc5[nH]cnc5[C@@H]4c4nc5cc(F)ccc5o4)c3cc2Cl)CC1 [Example 182, (R)-(5-chloro-6-(4-methylpiperazin-1-yl)pyrazolo[1,5-a]pyridin-3-yl)(4-(5-fluorobenzo[d]oxazol-2-yl)-6,7-dihydro-1H-imidazo[4,5-c]pyridin-5(4H)-yl)methanone]",1 to 5
3,"O=C(c1ccnn1C(F)F)N1CCc2[nH]cnc2[C@@H]1c1nc2c(F)cc(F)cc2o1 [Example 490, (R)-(4-(4,6-difluorobenzo[d]oxazol-2-yl)-6,7-dihydro-1H-imidazo[4,5-c]pyridin-5(4H)-yl)(1-(difluoromethyl)-1H-pyrazol-5-yl)methanone]",1 to 5
4,"O=C([C@@H]1CC1(F)F)N1CCc2[nH]cnc2[C@H]1c1nc2cc(F)ccc2o1 [Example 61, ((S)-2,2-difluorocyclopropyl)((S)-4-(5-fluorobenzo[d]oxazol-2-yl)-6,7-dihydro-1H-imidazo[4,5-c]pyridin-5(4H)-yl)methanone]",0.5 to 1
5,"CC(C)(O)c1nc(C(F)F)c(C(=O)N2CCc3[nH]cnc3[C@H]2c2nc3c(F)cccc3o2)o1 [Example 199, (S)-(4-(difluoromethyl)-2-(2-hydroxypropan-2-yl)oxazol-5-yl)(4-(4-fluorobenzo[d]oxazol-2-yl)-6,7-dihydro-1H-imidazo[4,5-c]pyridin-5(4H)-yl)methanone]",≤ 0.5
6,"O=C(c1cnn2cc(-c3ccccn3)ccc12)N1CCc2[nH]cnc2[C@H]1c1nc2cccc(F)c2o1 [Example 451, (S)-(4-(7-fluorobenzo[d]oxazol-2-yl)-6,7-dihydro-1H-imidazo[4,5-c]pyridin-5(4H)-yl)(6-(pyridin-2-yl)pyrazolo[1,5-a]pyridin-3-yl)methanone]",≤ 0.5
7,"O=C(CCc1cncs1)N1CCc2[nH]cnc2[C@H]1c1nc2cccc(F)c2o1 [Example 409, (S)-1-(4-(7-fluorobenzo[d]oxazol-2-yl)-6,7-dihydro-1H-imidazo[4,5-c]pyridin-5(4H)-yl)-3-(thiazol-5-yl)propan-1-one]",0.5 to 1
8,"Cc1nc(C(C)(C)C#N)oc1C(=O)N1CCc2[nH]cnc2[C@H]1c1nc2cc(F)ccc2o1 [Example 185, (S)-2-(5-(4-(5-fluorobenzo[d]oxazol-2-yl)-4,5,6,7-tetrahydro-1H-imidazo[4,5-c]pyridine-5-carbonyl)-4-methyloxazol-2-yl)-2-methylpropanenitrile]",0.5 to 1
9,"CN(C)Cc1cn2ncc(C(=O)N3CCc4[nH]cnc4[C@@H]3c3nc4cc(F)ccc4o3)c2cc1Cl [Example 204, (R)-(5-chloro-6-((dimethylamino)methyl)pyrazolo[1,5-a]pyridin-3-yl)(4-(5-fluorobenzo[d]oxazol-2-yl)-6,7-dihydro-1H-imidazo[4,5-c]pyridin-5(4H)-yl)methanonee]",1 to 5
10,O=C(c1ocnc1C(F)(F)F)N1CCc2[nH]cnc2[C@@H]1c1nc2cc(F)ccc2o1 [Example 24],1 to 5
11,"CC(C)(O)c1nc(C(F)(F)F)c(C(=O)N2CCc3[nH]cnc3[C@H]2c2nc3cccc(F)c3o2)o1 [Example 253, (S)-(4-(7-fluorobenzo[d]oxazol-2-yl)-6,7-dihydro-1H-imidazo[4,5-c]pyridin-5(4H)-yl)(2-(2-hydroxypropan-2-yl)-4-(trifluoromethyl)oxazol-5-yl)methanone]",≤ 0.5

# The remaining lines, values ahead:
row,AC50 [µM],Structure (SMILES)
1,≤ 0.5,"O=C(c1ocnc1CC(F)F)N1CCc2[nH]cnc2[C@H]1c1nc2ccccc2o1 [Example 873, (S)-(4-(benzo[d]oxazol-2-yl)-6,7-dihydro-1H-imidazo[4,5-c]pyridin-5(4H)-yl)(4-(2,2-difluoroethyl)oxazol-5-yl)methanone]"
2,≤ 0.5,"CC(C)n1ncnc1C(=O)N1CCc2[nH]cnc2[C@H]1c1nc2ccccc2o1 [Example 705, (S)-(4-(benzo[d]oxazol-2-yl)-6,7-dihydro-1H-imidazo[4,5-c]pyridin-5(4H)-yl)(1-isopropyl-1H-1,2,4-triazol-5-yl)methanone]"
3,≤ 0.5,"O=C(c1ocnc1C(F)(F)F)N1CCc2[nH]cnc2[C@H]1c1nc2c(F)ccc(F)c2o1 [Example 795, (S)-(4-(4,7-difluorobenzo[d]oxazol-2-yl)-6,7-dihydro-1H-imidazo[4,5-c]pyridin-5(4H)-yl)(4-(trifluoromethyl)oxazol-5-yl)methanone]"
4,≤ 0.5,"O=C(c1nnc(-c2cnn(C3CCC3)c2)o1)N1CCc2[nH]cnc2[C@H]1c1nc2c(F)ccc(F)c2o1 [Example 811, (S)-(5-(1-cyclobutyl-1H-pyrazol-4-yl)-1,3,4-oxadiazol-2-yl)(4-(4,7-difluorobenzo[d]oxazol-2-yl)-6,7-dihydro-1H-imidazo[4,5-c]pyridin-5(4H)-yl)methanone]"
5,≥ 5,"Cc1nc(-c2ccn(C)n2)oc1C(=O)N1CCc2[nH]cnc2[C@@H]1c1nc2cc(F)ccc2o1 [Example 826, (R)-(4-(5-fluorobenzo[d]oxazol-2-yl)-6,7-dihydro-1H-imidazo[4,5-c]pyridin-5(4H)-yl)(4-methyl-2-(1-methyl-1H-pyrazol-3-yl)oxazol-5-yl)methanone]"
6,≤ 0.5,"Cc1cc(F)cc2nc([C@H]3c4nc[nH]c4CCN3C(=O)c3ocnc3C(F)F)oc12 [Example 658, (R)-(4-(difluoromethyl)oxazol-5-yl)(4-(5-fluoro-7-methylbenzo[d]oxazol-2-yl)-6,7-dihydro-1H-imidazo[4,5-c]pyridin-5(4H)-yl)methanone]"
7,0.5 to 1,"COc1cccc2oc([C@@H]3c4nc[nH]c4CCN3C(=O)c3nc(C(F)F)nn3C)nc12 [Example 601, (S)-(3-(difluoromethyl)-1-methyl-1H-1,2,4-triazol-5-yl)(4-(4-methoxybenzo[d]oxazol-2-yl)-6,7-dihydro-1H-imidazo[4,5-c]pyridin-5(4H)-yl)methanone]"
8,1 to 5,"Cc1cccc2nc([C@H]3c4nc[nH]c4CCN3C(=O)c3nnc(-c4cnn(C(F)F)c4)o3)oc12 [Example 871, (R)-(5-(1-(difluoromethyl)-1H-pyrazol-4-yl)-1,3,4-oxadiazol-2-yl)(4-(7-methylbenzo[d]oxazol-2-yl)-6,7-dihydro-1H-imidazo[4,5-c]pyridin-5(4H)-yl)methanone]"
9,≤ 0.5,"O=C(c1nnc(-c2cnn(C(F)F)c2)o1)N1CCc2[nH]cnc2[C@@H]1c1nc2cccc(F)c2o1 [Example 876, (R)-(5-(1-(difluoromethyl)-1H-pyrazol-4-yl)-1,3,4-oxadiazol-2-yl)(4-(7-fluorobenzo[d]oxazol-2-yl)-6,7-dihydro-1H-imidazo[4,5-c]pyridin-5(4H)-yl)methanone]"
10,≤ 0.5,"Cc1ccc2oc([C@@H]3c4nc[nH]c4CCN3C(=O)c3oc(-c4cncn4C)nc3C(F)F)nc2c1 [Example 758, (S)-(4-(difluoromethyl)-2-(1-methyl-1H-imidazol-5-yl)oxazol-5-yl)(4-(5-methylbenzo[d]oxazol-2-yl)-6,7-dihydro-1H-imidazo[4,5-c]pyridin-5(4H)-yl)methanone]"
11,≤ 0.5,"Cc1cc(F)c2oc([C@H]3c4nc[nH]c4CCN3C(=O)c3ocnc3C(F)F)nc2c1 [Example 502, (R)-(4-(difluoromethyl)oxazol-5-yl)(4-(7-fluoro-5-methylbenzo[d]oxazol-2-yl)-6,7-dihydro-1H-imidazo[4,5-c]pyridin-5(4H)-yl)methanone]"
12,1 to 5,"Cc1cccc2oc([C@H]3c4nc[nH]c4CCN3C(=O)c3cnc(C(C)(C)O)o3)nc12 [Example 512, (R)-(2-(2-hydroxypropan-2-yl)oxazol-5-yl)(4-(4-methylbenzo[d]oxazol-2-yl)-6,7-dihydro-1H-imidazo[4,5-c]pyridin-5(4H)-yl)methanone]"

# Same assay, conditions: A375 cells expressing R408W PAH; 24 hrs with compound, then 20 μM sepiapterin and 800 μM 13C9,15N-Phenylalanine for 4 hours; 13C-Tyrosine by LC-MS; average where tested multiple times
row,Structure (SMILES),AC50 [µM]
1,Cc1nc(C2(O)CC2)oc1C(=O)N1CCc2[nH]cnc2C1c1nc2cc(F)ccc2o1 (stereo not shown),1 to 5
2,O=C(c1ccn(-c2ccccn2)n1)N1CCc2[nH]cnc2C1c1nc2ccccc2o1 (stereo not shown),≥ 5
3,O=C(c1cnn2cc(N3CCN(CC(F)(F)F)CC3)ccc12)N1CCc2[nH]cnc2C1c1nc2cc(F)ccc2o1 (stereo not shown),1 to 5
4,COCc1ncc(C(=O)N2CCc3[nH]cnc3C2c2nc3cc(F)ccc3o2)s1 (stereo not shown),1 to 5
5,O=C(c1ccnn1-c1ccccn1)N1CCc2[nH]cnc2C1c1nc2cc(F)ccc2o1 (stereo not shown),1 to 5
6,Cc1ccc2nc(C3c4nc[nH]c4CCN3C(=O)c3nnc(-c4cn[nH]c4)o3)oc2c1 (stereo not shown),1 to 5
7,O=C(c1nc(C(F)(F)F)co1)N1CCc2nc[nH]c2C1c1nc2cc(F)ccc2o1 (stereo not shown),1 to 5
8,CC(C)(O)c1nc(C(F)F)c(C(=O)N2CCCc3[nH]cnc3C2c2nc3cc(F)ccc3o2)o1 (stereo not shown),1 to 5
9,O=C(c1cnn2cc(CCN3CCOCC3)ccc12)N1CCc2[nH]cnc2C1c1nc2cc(F)ccc2o1 (stereo not shown),1 to 5
10,COc1cccc2oc(C3c4nc[nH]c4CCN3C(=O)c3cnc(C(C)(C)O)o3)nc12 (stereo not shown),1 to 5
11,O=C(c1cnn2cc(N3CCOCC3)ccc12)N1CCc2[nH]cnc2C1c1nc2cc(F)ccc2o1 (stereo not shown),1 to 5
